In patent US20210137829A1, “TOPICAL DELIVERY SYSTEMS FOR ACTIVE COMPOUNDS” (Yissum Research Development Company of the Hebrew …, priority 2017, published 2021):

Tests used:
[1] = Self-diffusion NMR (SD-NMR); assay type: physicochemical
Protocol: In order to characterize the structure of the oily domains, self-diffusion NMR (SD-NMR) analysis was carried out. SD-NMR analysis provides an indication on the location of each component within the structure, by calculating the diffusion coefficient of each component in the system.
SD-NMR measurements were performed with a Bruker AVII 500 spectrometer equipped with GREAT 1/10 gradients, a 5 mm BBO and a 5 mm BBI probe, both with a z-gradient coil and with a maximum gradient strength of 0.509 and 0.544 T m^−1, respectively. Diffusion was measured using an asymmetric bipolar longitudinal eddy-current delay (bpLED) experiment, or and asymmetric bipolar stimulated echo (known as one-shot) experiment with convection compensation and an asymmetry factor of 20%, ramping the strongest gradient from 2% to 95% of maximum strength in 32 steps. The spectrum was processed with the Bruker TOPSPIN software. NMR spectra were recorded at 25±0.2° C. The components were identified by their chemical shift in 1H NMR.

[2] = Water dilution of the oily phase; assay type: physicochemical; conditions: oily phase loaded with active; un-loaded phase separates above 50 wt % water
Protocol: 2 wt % DCF-Na loaded oily composition which is substantially devoid of water (i.e. a concentrate) was prepared according to the process described above. The un-diluted oily composition was constituted by self-assembled oil-solvated clusters or short domains of surfactants, which differ from the classical reverse micelles. These concentrates are dilutable by any suitable diluent, for example by purified water, to form a diluted delivery system.
It was noted that the oily carrier, i.e. the oily composition without DCF-Na, could not be fully diluted.

## O=C([O-])Cc1ccccc1Nc1c(Cl)cccc1Cl.[Na+] [DCF-Na, diclofenac sodium]
[1]; 2 wt % DCF-Na formulation, FIGS. 11A-11B
  Diffusion coefficient Dx of DCF-Na: 0.1×10^−11 m^2/sec
[1]; 80 wt % water, 0.75 wt % gellant
  Diffusion coefficient of DCF-Na, gelled vs non-viscosified: lower in the gelled formulation than in the non-viscosified system
[2]
  Dilutability of the oily phase with water: fully dilutable up to 90 wt %
